Assay results taken from patent publication US11021470B2, “2-substituted quinazoline compounds comprising a substituted heterocyclic group and methods of use thereof” (Araxes Pharma LLC, priority 2015, dated 2021).

What was measured:
[1] = Whole blood stability, dog; type: in vitro ADME; conditions: 37° C., read-out: Whole Blood Stability (T1/2) (converted)
Procedure: (§1) Representative compounds of the invention were tested for their whole blood stability as follows:
(§2) Test compounds were prepared as a 500 μM stock solution in DMSO (Adding 10 μl of 10 mM DMSO stock solution to 190 μl of 100% DMSO). Whole blood was thawed on ice. A whole blood plate was prepared by adding 460 μl of the whole blood (different species as needed) to a 96-well in ml deep well plate. The whole blood plate was preincubated at 37° C. for 10 min. 4 μl of compound solution and 396 μl of whole blood was added to the plate and mixed thoroughly. Each sample was aliquoted (30 μl) to the incubation plate (cluster tubes) and quenched at time zero with ice-cold 100% ACN, and the incubation plates were added to the 37° C. incubator (200 μl).
(§3) The time zero sample was maintained at 4° C. until centrifuged. All other samples were quench at different time points (1, 2, 4 hr), vortexed for 30 seconds and centrifuged at 3500 rpm for 15 min at 4° C. 30 μl of supernatant was added to 170 μl 0.1% FA aqueous solution and the sample was analyzes by LC/MS/MS.

[2] = Whole blood stability, monkey; type: in vitro ADME; conditions: 37° C., read-out: Whole Blood Stability (T1/2) (converted)
Procedure: as §1, §2, §3

[3] = biological target: T1, KRAS G12C 1-169, his-tagged protein, GDP-loaded (Homo sapiens, UniProt P01116, G12C); test: KRAS G12C covalent binding (% modification) by mass spectrometry, ten or three minute incubation
T1 construct: KRAS G12C 1-169, his-tagged protein, GDP-loaded
Summary of the method: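 GDP-loaded protein in 20 mM Hepes, 150 mM NaCl, 1 mM MgCl2 was incubated with compound (final 100, 30 or 10 μM; 2% DMSO) at room temperature, then quenched with formic acid. Intact-protein LC-MS with charge-envelope deconvolution gave masses and intensities of modified and unmodified species.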

[4] = covalent binding to KRAS G12C, % modification after a three minute incubation period
[5] = covalent binding to KRAS G12C after a ten minute incubation period

| Compound | Binding % [3, 4] | also measured |
| --- | --- | --- |
| C=CC(=O)N1CCN(c2nc(OCCN(CC)CC)nc3c(F)c(-c4c(O)cccc4F)c(Cl)cc23)CC1 [A, reference compound] | – | half-life at 5 µM [1]: 36 min; half-life at 5 µM [2]: 6 min |
| C=CC(=O)N1C[C@H](C)N(c2nc(N3CC(N(C)C)C3)nc3c(F)c(-c4c(C)ccc5[nH]ccc45)c(Cl)cc23)C[C@H]1C [Compound 266, 1-((2R,5S)-4-(6-chloro-2-(3-(dimethylamino)azetidin-1-yl)-8-fluoro-7-(5-methyl-1H-indol-4-yl)quinazolin-4-yl)-2,5-dimethylpiperazin-1-yl)prop-2-en-1-one] | +++ (+++ indicates binding activity greater than 90%) | – |
| C=CC(=O)N1C[C@H](C)N(c2nc(N3CC(N(C)C)C3)nc3c(F)c(-c4c(C)ccc5[nH]nc(CO)c45)c(Cl)cc23)C[C@H]1C [Compound 299, 1-((2R,5S)-4-(6-chloro-2-(3-(dimethylamino)azetidin-1-yl)-8-fluoro-7-(3-(hydroxymethyl)-5-methyl-1H-indazol-4-yl)quinazolin-4-yl)-2,5-dimethylpiperazin-1-yl)prop-2-en-1-one] | ++ (++ indicates binding activity from 50 to 90%) | – |
| C=CC(=O)N1C[C@H](C)N(c2nc(OCCN(CC)CC)nc3c(F)c(-c4c(O)cccc4F)c(Cl)cc23)C[C@H]1C [Compound 48, 1-((2R,5S)-4-(6-chloro-2-(2-(diethylamino)ethoxy)-8-fluoro-7-(2-fluoro-6-hydroxyphenyl)quinazolin-4-yl)-2,5-dimethylpiperazin-1-yl)prop-2-en-1-one] | – | Binding % [3, 5]: ++ (++ indicates binding activity from 50 to 90%) |
| C=CC(=O)N1C[C@H](C)N(c2nc(N3CC(N(C)C)C3)nc3c(F)c(-c4c(C)ccc5[nH]nc(I)c45)c(Cl)cc23)C[C@H]1C [Compound 286, 1-((2R,5S)-4-(6-chloro-2-(3-(dimethylamino)azetidin-1-yl)-8-fluoro-7-(3-iodo-5-methyl-1H-indazol-4-yl)quinazolin-4-yl)-2,5-dimethylpiperazin-1-yl)prop-2-en-1-one] | +++ (+++ indicates binding activity greater than 90%) | – |
| C=CC(=O)N1CCN(c2nc(OCCc3ncccn3)nc3c(F)c(-c4c(O)cccc4F)c(Cl)cc23)C[C@H]1C (atropisomer, axis not shown) [Compound 268, 1-((R)-4-(6-chloro-8-fluoro-7-((S)-2-fluoro-6-hydroxyphenyl)-2-(2-(pyrimidin-2-yl)ethoxy)quinazolin-4-yl)-2-methylpiperazin-1-yl)prop-2-en-1-one] | +++ (+++ indicates binding activity greater than 90%) | – |
| C=CC(=O)N1C[C@H](C)N(c2nc(OCCn3ccnc3CC)nc3c(F)c(-c4c(C)ccc5[nH]ncc45)c(Cl)cc23)C[C@H]1C [Compound 283, 1-((2R,5S)-4-(6-chloro-2-(2-(2-ethyl-1H-imidazol-1-yl)ethoxy)-8-fluoro-7-(5-methyl-1H-indazol-4-yl)quinazolin-4-yl)-2,5-dimethylpiperazin-1-yl)prop-2-en-1-one] | +++ (+++ indicates binding activity greater than 90%) | – |
| C=CC(=O)N1C[C@H](C)N(c2nc(OCCn3ccnc3C3CC3)nc3c(F)c(-c4c(C)ccc5[nH]ncc45)c(Cl)cc23)C[C@H]1C [Compound 276, 1-((2R,5S)-4-(6-chloro-2-(2-(2-cyclopropyl-1H-imidazol-1-yl)ethoxy)-8-fluoro-7-(5-methyl-1H-indazol-4-yl)quinazolin-4-yl)-2,5-dimethylpiperazin-1-yl)prop-2-en-1-one] | ++ (++ indicates binding activity from 50 to 90%) | – |
| C=CC(=O)N1C[C@H](C)N(c2nc(N3CC(N(C)C)C3)nc3c(F)c(-c4c(O)cccc4F)c(C(F)(F)F)cc23)C[C@H]1C (atropisomer, axis not shown) [Compound 270, 1-((2R,5S)-4-(2-(3-(dimethylamino)azetidin-1-yl)-8-fluoro-7-((R)-2-fluoro-6-hydroxyphenyl)-6-(trifluoromethyl)quinazolin-4-yl)-2,5-dimethylpiperazin-1-yl)prop-2-en-1-one] | +++ (+++ indicates binding activity greater than 90%) | – |
| C=CC(=O)N1C[C@H](C)N(c2nc(OCCn3ccnc3CC)nc3c(F)c(-c4c(O)cccc4F)c(Cl)cc23)C[C@H]1C (atropisomer, axis not shown) [Compound 277, 1-((2R,5S)-4-(6-chloro-2-(2-(2-ethyl-1H-imidazol-1-yl)ethoxy)-8-fluoro-7-((S)-2-fluoro-6-hydroxyphenyl)quinazolin-4-yl)-2,5-dimethylpiperazin-1-yl)prop-2-en-1-one] | +++ (+++ indicates binding activity greater than 90%) | – |
| C=CC(=O)N1C[C@H](C)N(c2nc(OCCn3ccnc3)nc3c(F)c(-c4c(O)cccc4F)c(Cl)cc23)C[C@H]1C (atropisomer, axis not shown) [Compound 249, 1-((2R,5S)-4-(2-(2-(1H-imidazol-1-yl)ethoxy)-6-chloro-8-fluoro-7-((S)-2-fluoro-6-hydroxyphenyl)quinazolin-4-yl)-2,5-dimethylpiperazin-1-yl)prop-2-en-1-one] | +++ (+++ indicates binding activity greater than 90%) | – |
| C=CC(=O)N1C[C@H](C)N(c2nc(OCCn3cncn3)nc3c(F)c(-c4c(O)cccc4F)c(Cl)cc23)C[C@H]1C (atropisomer, axis not shown) [Compound 259, 1-((2R,5S)-4-(2-(2-(1H-1,2,4-triazol-1-yl)ethoxy)-6-chloro-8-fluoro-7-((S)-2-fluoro-6-hydroxyphenyl)quinazolin-4-yl)-2,5-dimethylpiperazin-1-yl)prop-2-en-1-one] | +++ (+++ indicates binding activity greater than 90%) | – |
| 1-((2R,5S)-4-(6-chloro-2-(2-(diethylamino)ethoxy)-8-fluoro-7-((S)-6-methyl-1H-indazol-7-yl)quinazolin-4-yl)-2,5-dimethylpiperazin-1-yl)prop-2-en-1-one [Compound 157] | + (+ indicates binding activity greater than 0% and up to 50%) | – |
| C=CC(=O)N1C[C@H](C)N(c2nc(N3CC(N(C)C)C3)nc3c(F)c(-c4c(O)cccc4F)c(Cl)cc23)C[C@H]1C (atropisomer, axis not shown) [Compound 53, 1-((2R,5S)-4-((R)-6-chloro-2-(3-(dimethylamino)azetidin-1-yl)-8-fluoro-7-(2-fluoro-6-hydroxyphenyl)quinazolin-4-yl)-2,5-dimethylpiperazin-1-yl)prop-2-en-1-one] | – | Binding % [3, 5]: ++ (++ indicates binding activity from 50 to 90%) |
| C=CC(=O)N1C[C@H](C)N(c2nc(OCCc3ncc(N(C)C)cn3)nc3c(F)c(-c4c(O)cccc4F)c(Cl)cc23)C[C@H]1C (atropisomer, axis not shown) [Compound 258, 1-((2R,5S)-4-(6-chloro-2-(2-(5-(dimethylamino)pyrimidin-2-yl)ethoxy)-8-fluoro-7-((S)-2-fluoro-6-hydroxyphenyl)quinazolin-4-yl)-2,5-dimethylpiperazin-1-yl)prop-2-en-1-one] | +++ (+++ indicates binding activity greater than 90%) | – |
| C=CC(=O)N1C[C@H](C)N(c2nc(N3CC(N(C)C)C3)nc3c(F)c(-c4c(C)ccc5cn[nH]c45)c(Cl)cc23)C[C@H]1C [Compound 187, 1-((2R,5S)-4-(6-chloro-2-(3-(dimethylamino)azetidin-1-yl)-8-fluoro-7-(6-methyl-1H-indazol-7-yl)quinazolin-4-yl)-2,5-dimethylpiperazin-1-yl)prop-2-en-1-one] | +++ (+++ indicates binding activity greater than 90%) | – |
| C=CC(=O)N1C[C@H](C)N(c2nc(N3CC(N(C)C)C3)nc3c(F)c(-c4c(O)cccc4F)c(C(F)(F)F)cc23)C[C@H]1C (atropisomer, axis not shown) [Compound 269, 1-((2R,5S)-4-(2-(3-(dimethylamino)azetidin-1-yl)-8-fluoro-7-((S)-2-fluoro-6-hydroxyphenyl)-6-(trifluoromethyl)quinazolin-4-yl)-2,5-dimethylpiperazin-1-yl)prop-2-en-1-one] | + (+ indicates binding activity greater than 0% and up to 50%) | – |
| [2H]C([2H])([2H])N(C1CN(c2nc(N3C[C@@H](C)N(C(=O)C=C)C[C@@H]3C)c3cc(Cl)c(-c4c(O)cccc4F)c(F)c3n2)C1)C([2H])([2H])[2H] (atropisomer, axis not shown) [Compound 207, 1-((2R,5S)-4-(2-(3-(bis(tridueteromethyl)amino)azetidin-1-yl)-6-chloro-8-fluoro-7-((S)-2-fluoro-6-hydroxyphenyl)quinazolin-4-yl)-2,5-dimethylpiperazin-1-yl)prop-2-en-1-one] | +++ (+++ indicates binding activity greater than 90%) | – |
| C=CC(=O)N1C[C@H](C)N(c2nc(N3CC(N(C)C)C3)nc3c(F)c(-c4c(C)ccc5[nH]nc(C(N)=O)c45)c(Cl)cc23)C[C@H]1C [Compound 296, 4-(4-((2S,5R)-4-acryloyl-2,5-dimethylpiperazin-1-yl)-6-chloro-2-(3-(dimethylamino)azetidin-1-yl)-8-fluoroquinazolin-7-yl)-5-methyl-1H-indazole-3-carboxamide] | ++ (++ indicates binding activity from 50 to 90%) | – |
